Results as given in patent publication US11059815B2, “Synthesis of small molecule histone deacetylase 6 degraders, compounds formed thereby, and pharmaceutical compositions containing them” (Wisconsin Alumni Research Foundation, priority 2018, dated 2021).
“Also recorded” adds a separate entry of the source.

Molecular target: T1, HDAC6 (Homo sapiens, UniProt Q9UBN7)
T1 construct: endogenous in cells; host or cells: MM1S (ATCC CRL-2974)
T1 sequence (Q9UBN7 1-1215): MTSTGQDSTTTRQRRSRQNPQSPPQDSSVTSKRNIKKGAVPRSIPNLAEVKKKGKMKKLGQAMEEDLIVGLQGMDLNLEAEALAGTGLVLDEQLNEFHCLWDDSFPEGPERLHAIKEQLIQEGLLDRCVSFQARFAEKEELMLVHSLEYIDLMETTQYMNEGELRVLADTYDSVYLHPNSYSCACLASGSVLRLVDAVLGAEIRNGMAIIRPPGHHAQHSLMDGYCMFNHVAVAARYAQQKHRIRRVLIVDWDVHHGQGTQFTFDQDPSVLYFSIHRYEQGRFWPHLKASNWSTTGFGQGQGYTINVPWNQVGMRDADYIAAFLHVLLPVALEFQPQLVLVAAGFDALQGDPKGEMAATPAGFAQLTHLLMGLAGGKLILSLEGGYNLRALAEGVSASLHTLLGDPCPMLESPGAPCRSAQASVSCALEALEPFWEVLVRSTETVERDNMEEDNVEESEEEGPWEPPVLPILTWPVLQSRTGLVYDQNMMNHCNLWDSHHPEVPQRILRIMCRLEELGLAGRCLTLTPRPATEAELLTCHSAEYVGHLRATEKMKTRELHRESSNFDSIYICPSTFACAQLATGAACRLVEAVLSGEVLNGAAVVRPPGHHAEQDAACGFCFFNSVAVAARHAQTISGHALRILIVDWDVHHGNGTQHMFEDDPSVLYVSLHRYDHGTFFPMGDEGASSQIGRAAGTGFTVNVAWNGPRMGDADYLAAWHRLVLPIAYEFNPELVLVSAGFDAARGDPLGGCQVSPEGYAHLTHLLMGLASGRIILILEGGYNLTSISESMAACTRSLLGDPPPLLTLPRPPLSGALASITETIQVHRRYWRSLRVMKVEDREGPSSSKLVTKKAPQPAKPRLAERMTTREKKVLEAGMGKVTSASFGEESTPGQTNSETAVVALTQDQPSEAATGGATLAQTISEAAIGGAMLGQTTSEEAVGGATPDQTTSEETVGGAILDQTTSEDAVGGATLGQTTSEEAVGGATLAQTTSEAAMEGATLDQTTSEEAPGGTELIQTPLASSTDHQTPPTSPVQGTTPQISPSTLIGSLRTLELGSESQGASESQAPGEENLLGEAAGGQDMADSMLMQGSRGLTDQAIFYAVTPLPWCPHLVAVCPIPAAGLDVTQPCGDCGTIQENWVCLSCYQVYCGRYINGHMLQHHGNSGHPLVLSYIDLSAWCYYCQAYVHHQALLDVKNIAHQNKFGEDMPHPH
Test: Western blot of HDAC6 in MM1S cells
Type: cell-based
Settings: for HDAC6 degradation activity of negative controls by western blot: data not shown
Procedure: FIGS. 10A and 10B are western blot analysis of MM1S cells treated with selected candidates from C4-lined series (FIG. 10A) and C5-lined series (FIG. 10B) for 6 h.
FIGS. 12A, 12B, and 12C are a series of western blots showing that degrader 12d selectively promotes HDAC6 degradation in MM1S cells.
FIGS. 13A and 13B are western blot analysis of MM1S cells with pre-treatment of E3 ligase ligand pomalidomide, HDAC6 inhibitor Next-A or NAE inhibitor MLN 4924 (FIG. 13A) or pre-treatment of proteasome inhibitor MG132 or Bortezomib (FIG. 13B) or vehicle (DMSO) for 1 h and it is followed by the treatment of 100 nM 2d or vehicle (DMSO) for 6 h.
FIG. 16 is a western blot of selected candidate compounds having longer linkers. MM1S cells were treated with 100 nM degraders for 6 hours and analyzed by western blot.
See FIG. 10A and FIG. 10B to confirm the ELISA results. Class II HDAC4 was selected for comparison. For selected compounds from C4- or C5-linked series, all of them presented maximal effects at 100 nM and degraded significant amount of HDAC6 at 10 nM. […] The results from Western blot are consistent with the screening results by ELISA.
To evaluate the activity and selectivity of 12d, a full dose response experiment was performed with compound concentrations ranging from 0.3 nM to 10 μM in MM1S cells (FIG. 12A) for several HDACs, IKZFs, and Ac-tubulin. […] Degrader 12d reduced HDAC6 protein content at as low as 3 nM and achieved maximal effects around 30 nM. […] See Douglass et al. 2013, supra. The degradation of IKZFs started from 30 nM and was dose-dependent. It is interesting to see the more efficient degradation of HDAC6, which requires the formation of ternary complex, than that of IKZFs, which only requires the formation of binary complex. In addition to the distinct mechanism, the different turnover rates of HDAC6 and IKZFs may also contribute to the observed results. The acetylated tubulin level was also dose-dependent. At higher concentrations (3 μM and 10 μM), tubulin acetylation was not […] in response to recovered HDAC6 expression by “hook effect”. The elevated tubulin acetylation at higher concentrations was likely due to the combination of HDAC6 degradation and HDAC6 inhibition.
To probe the efficiency of 12d, MM1S was treated with 100 nM 12d and the change of HDAC6 protein level was monitored by time. The HDAC6 degradation started around 1 h and reached maximal degradation effect at 4 h. The degradation of IKZFs was only observed after 4 h. Meanwhile, HDAC1 was not affected and the acetylation of tubulin was accumulated by time. To study the re-synthesis rate of HDAC6 after degradation, “wash-out” experiments were performed (data not shown). Cells were treated with 100 nM 12d for 6 h and then washed with PBS to remove remaining degraders. HDAC6 expression was monitored for 48 h. […] Selected degraders were also tested in other cell lines and they are effective among all tested cancer cell lines.
To support the involvement of ubiquitination-proteasome system for the decrease of HDAC6 protein level, the degrader was co-treated with binding competitors or pathway blockers. […] Moreover, it also confirmed the role of the pomalidomide moiety in modulating IKZFs. […] Additionally, proteasome inhibitor MG132 and Bortezomib were used to block the down-stream proteasome degradation. […] Acetylated tubulin level was suppressed as well. This confirms that HDAC6 degradation is responsible for the acetylation of its substrates rather than inhibition by the “warhead” moiety. To exclude the possible transcriptional impact by degraders, qRT-PCR was used to examine the mRNA level of HDAC6 and related genes (data not shown). […] This is consistent with the hypothesis that the cellular knockdown of HDAC6 is due to direct protein degradation, not by transcriptional downregulation. […]

[1] = 1 h pre-treatment, then 100 nM degrader 6 h, MM1S
[2] = 12d dose response 0.3 nM to 10 μM, MM1S

## O=C(CCCCCCC(=O)N/N=C/c1ccc(OCCOCCOCCn2cc(CNc3cccc4c3C(=O)N(C3CCC(=O)NC3=O)C4=O)nn2)cc1)NO (centres unmarked) [Compound 1]
10 nM, 6 h, MM1S
  HDAC6 degradation by western blot: degraded much less HDAC6

## CCCCN(Cc1ccc(C(=O)NO)cc1)C(=O)Nc1ccc(OCCCCCn2cc(CNc3cccc4c3C(=O)N(C3CCC(=O)NC3=O)C4=O)nn2)cc1 (centres unmarked) [Compound 2]
time-course, MM1S
  time at which reduction of HDAC6 expression started: 30 min
  time of maximal HDAC6 degradation: around 4 h

## CCCCN(Cc1ccc(C(=O)NO)cc1)C(=O)Nc1ccc(OCCCCCn2cc(CNc3cccc4c3C(=O)N(C3CCC(=O)NC3=O)C4=O)nn2)cc1 (centres unmarked) [Compound 12d, 4-((1-butyl-3-(4-((5-(4-(((2-(2,6-dioxopiperidin-3-yl)-1,3-dioxoisoindolin-4-yl)amino)methyl)-1H-1,2,3-triazol-1-yl)pentyl)oxy)phenyl)ureido)methyl)-N-hydroxybenzamide]
100 nM for 6 h, washed with PBS, monitored within 48 h
  HDAC6 recovery after wash-out: not fully recovered
100 nM, MM1S
  time at which HDAC6 degradation started: around 1 h
  time of maximal HDAC6 degradation effect: 4 h
[1]
  HDAC6 level on co-treatment with pomalidomide or Next-A: recovered HDAC6 level
  degradation on co-treatment with NAE inhibitor MLN4924: abolishing the degradation of both HDAC6 and IKZFs
  degradation on co-treatment with proteasome inhibitor MG132 or Bortezomib: no degradation of HDAC6
[2]
  concentration at which hook effect was observed: ≥ 3 µM
  concentration of maximal effects on HDAC6: around 30 nM
  lowest concentration reducing HDAC6 protein content: 3 nM

## CCCCN(Cc1ccc(C(=O)OC)cc1)C(=O)Nc1ccc(OCCCCCn2cc(CNc3cccc4c3C(=O)N(C3CCC(=O)NC3=O)C4=O)nn2)cc1 (centres unmarked) [Compound 13, Methyl 4-((1-butyl-3-(4-((5-(4-(((2-(2,6-dioxopiperidin-3-yl)-1,3-dioxoisoindolin-4-yl)amino)methyl)-1H-1,2,3-triazol-1-yl)pentyl)oxy)phenyl)ureido)methyl)benzoate]
MM1S
  HDAC6 degradation activity of negative controls by western blot: inactive; also recorded: limited HDAC6 degradation

## CCCCN(Cc1ccc(C(=O)NO)cc1)C(=O)Nc1ccc(OCCCCCn2cc(CNc3cccc4c3C(=O)N(C3CCC(=O)N(C)C3=O)C4=O)nn2)cc1 (centres unmarked) [Compound 15, 4-((1-butyl-3-(4-((5-(4-(((2-(1-methyl-2,6-dioxopiperidin-3-yl)-1,3-dioxoisoindolin-4-yl)amino)methyl)-1H-1,2,3-triazol-1-yl)pentyl)oxy)phenyl)ureido)methyl)-N-hydroxybenzamide]
MM1S
  HDAC6 degradation activity of negative controls by western blot: inactive
